Assay results from PubChem BioAssay (NCI).
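Interpolation was linear, between the two tested concentrations surrounding the appropriate level; five concentrations were tested over 48 hours in 96-well plates. GI50: concentration for 50% inhibition of growth. TGI: total growth inhibition.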

Key:
Assay in all cases: growth of human tumour cells (NCI), 48 h
BT-549 breast = test system: BT-549 breast
NCI-H23 lung = test system: NCI-H23 lung
HOP-62 NSCLC = test system: HOP-62 NSCLC
IGROV1 ovarian = test system: IGROV1 ovarian
M14 melanoma = test system: M14 melanoma
HOP-92 NSCLC = test system: HOP-92 NSCLC
OVCAR-5 ovarian = test system: OVCAR-5 ovarian
HCT-116 colon = test system: HCT-116 colon
UACC-62 melanoma = test system: UACC-62 melanoma
SK-MEL-5 melanoma = test system: SK-MEL-5 melanoma

| SMILES | GI50 (BT-549 breast) [nM] | TGI (BT-549 breast) [µM] | GI50 (NCI-H23 lung) [nM] | TGI (NCI-H23 lung) [µM] | GI50 (HOP-62 NSCLC) [nM] | TGI (HOP-62 NSCLC) [µM] | GI50 (IGROV1 ovarian) [nM] | TGI (IGROV1 ovarian) [µM] | GI50 (M14 melanoma) [nM] | TGI (M14 melanoma) [µM] | GI50 (HOP-92 NSCLC) [nM] | TGI (HOP-92 NSCLC) [µM] | GI50 (OVCAR-5 ovarian) [nM] | TGI (OVCAR-5 ovarian) [µM] | GI50 (HCT-116 colon) [nM] | TGI (HCT-116 colon) [nM] | GI50 (UACC-62 melanoma) [nM] | TGI (UACC-62 melanoma) [µM] | GI50 (SK-MEL-5 melanoma) [nM] | TGI (SK-MEL-5 melanoma) [nM] |
| --- | --- | --- | --- | --- | --- | --- | --- | --- | --- | --- | --- | --- | --- | --- | --- | --- | --- | --- | --- | --- |
| O=C(CO[N+](=O)[O-])Nc1ccc(C(=O)/C=C/c2ccc(Cl)cc2)cc1 | 1860 | 5 | 4550 | 22.1 | 3110 | 9.73 | 13400 | 30 | 2050 | 4.96 | 2950 | 15.2 | 14800 | 36 | 298 | 1090 | 2760 | 11 | 4230 | 15300 |
| CC[N+](CC)=c1sc2c(s1)C(c1ccc(Cl)cc1)Oc1ccc(Cl)cc1-2 (stereo not given) | 749 | 2.31 | 1070 | 6.79 | 1220 | 5.56 | 1600 | 10.7 | 1860 | 4 | 2400 | 5.66 | 2320 | 6.11 | 568 | 1890 | 1650 | 4.14 | 1220 | 2530 |
| COc1cc(NC(N)=NCCC(C)(C)Oc2ccc(C(F)(F)F)cc2)ncc1C#N | 1810 | 3.38 | 1430 | 2.81 | 1750 | 3.2 | 1800 | 3.48 | 1620 | 3.11 | 1380 | 2.8 | 1880 | 3.36 | 1460 | 2830 | 1780 | 3.18 | 1580 | 2930 |
